{"source": "patent US9326506B2", "about": "“Preparation method, agricultural composition and applications of natural brassinolide analogs” (CHENGDU NEWSUN CROPSCIENCE CO., LTD, priority 2012, dated 2016)", "system": "rice", "assay": "Low temperature assay on rice seedlings", "type": "in vivo", "method_in_brief": "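Nine-day-old etiolated rice seedlings (grown on water at 30 °C±2 °C, dark) immersed in brassinolide analogues at 1–0.0001 mg/L or pure water, held at 1–5 °C for 24 hr. Plant height, leaf area, root weight read at 3, 6, 9, 12 days; leaf and tiller number at 12 days.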", "data": [{"smiles": "CC(C)[C@H](C)[C@@H](O)[C@H](O)[C@@H](C)[C@H]1CCC2C3COC(=O)C4C[C@H](O)[C@H](O)C[C@]4(C)C3CC[C@@]21C", "note": "(stereo partly drawn) [BR1]", "values": [{"measurement": "Area of leaf", "setting": "0.0001 mg/l, 1 °C, 3 days", "value": 10, "unit": "cm^2"}, {"measurement": "Height", "setting": "0.0001 mg/l, 1 °C, 3 days", "value": 7.1, "unit": "cm"}, {"measurement": "Weight of root", "setting": "0.0001 mg/l, 1 °C, 3 days", "value": 2.8, "unit": "g"}, {"measurement": "Area of leaf", "setting": "0.0001 mg/l, 1 °C, 6 days", "value": 11.2, "unit": "cm^2"}, {"measurement": "Height", "setting": "0.0001 mg/l, 1 °C, 6 days", "value": 7.2, "unit": "cm"}, {"measurement": "Weight of root", "setting": "0.0001 mg/l, 1 °C, 6 days", "value": 3.1, "unit": "g"}, {"measurement": "Area of leaf", "setting": "0.0001 mg/l, 1 °C, 9 days", "value": 12.4, "unit": "cm^2"}, {"measurement": "Height", "setting": "0.0001 mg/l, 1 °C, 9 days", "value": 7.3, "unit": "cm"}, {"measurement": "Weight of root", "setting": "0.0001 mg/l, 1 °C, 9 days", "value": 3.4, "unit": "g"}, {"measurement": "Area of leaf", "setting": "0.0001 mg/l, 1 °C, 12 days", "value": 13, "unit": "cm^2"}, {"measurement": "Height", "setting": "0.0001 mg/l, 1 °C, 12 days", "value": 7.4, "unit": "cm"}, {"measurement": "Number of leaf", "setting": "0.0001 mg/l, 1 °C, 12 days", "value": 3}, {"measurement": "Number of tiller", "setting": "0.0001 mg/l, 1 °C, 12 days", "value": 3}, {"measurement": "Weight of root", "setting": "0.0001 mg/l, 1 °C, 12 days", "value": 3.9, "unit": "g"}, {"measurement": "Area of leaf", "setting": "0.0001 mg/l, 2 °C, 3 days", "value": 10.2, "unit": "cm^2"}, {"measurement": "Height", "setting": "0.0001 mg/l, 2 °C, 3 days", "value": 7.1, "unit": "cm"}, {"measurement": "Weight of root", "setting": "0.0001 mg/l, 2 °C, 3 days", "value": 2.8, "unit": "g"}, {"measurement": "Area of leaf", "setting": "0.0001 mg/l, 2 °C, 6 days", "value": 11.7, "unit": "cm^2"}, {"measurement": "Height", "setting": "0.0001 mg/l, 2 °C, 6 days", "value": 7.2, "unit": "cm"}, {"measurement": "Weight of root", "setting": "0.0001 mg/l, 2 °C, 6 days", "value": 3.0, "unit": "g"}, {"measurement": "Area of leaf", "setting": "0.0001 mg/l, 2 °C, 9 days", "value": 12.6, "unit": "cm^2"}, {"measurement": "Height", "setting": "0.0001 mg/l, 2 °C, 9 days", "value": 7.3, "unit": "cm"}, {"measurement": "Weight of root", "setting": "0.0001 mg/l, 2 °C, 9 days", "value": 3.2, "unit": "g"}, {"measurement": "Area of leaf", "setting": "0.0001 mg/l, 2 °C, 12 days", "value": 13, "unit": "cm^2"}, {"measurement": "Height", "setting": "0.0001 mg/l, 2 °C, 12 days", "value": 7.5, "unit": "cm"}, {"measurement": "Number of leaf", "setting": "0.0001 mg/l, 2 °C, 12 days", "value": 3}, {"measurement": "Number of tiller", "setting": "0.0001 mg/l, 2 °C, 12 days", "value": 3}, {"measurement": "Weight of root", "setting": "0.0001 mg/l, 2 °C, 12 days", "value": 3.9, "unit": "g"}, {"measurement": "Area of leaf", "setting": "0.0001 mg/l, 3 °C, 3 days", "value": 10.4, "unit": "cm^2"}, {"measurement": "Height", "setting": "0.0001 mg/l, 3 °C, 3 days", "value": 7.1, "unit": "cm"}, {"measurement": "Weight of root", "setting": "0.0001 mg/l, 3 °C, 3 days", "value": 2.5, "unit": "g"}, {"measurement": "Area of leaf", "setting": "0.0001 mg/l, 3 °C, 6 days", "value": 12, "unit": "cm^2"}, {"measurement": "Height", "setting": "0.0001 mg/l, 3 °C, 6 days", "value": 7.2, "unit": "cm"}, {"measurement": "Weight of root", "setting": "0.0001 mg/l, 3 °C, 6 days", "value": 2.6, "unit": "g"}, {"measurement": "Area of leaf", "setting": "0.0001 mg/l, 3 °C, 9 days", "value": 12.6, "unit": "cm^2"}, {"measurement": "Height", "setting": "0.0001 mg/l, 3 °C, 9 days", "value": 7.5, "unit": "cm"}, {"measurement": "Weight of root", "setting": "0.0001 mg/l, 3 °C, 9 days", "value": 2.9, "unit": "g"}, {"measurement": "Area of leaf", "setting": "0.0001 mg/l, 3 °C, 12 days", "value": 13.2, "unit": "cm^2"}, {"measurement": "Height", "setting": "0.0001 mg/l, 3 °C, 12 days", "value": 7.6, "unit": "cm"}, {"measurement": "Number of leaf", "setting": "0.0001 mg/l, 3 °C, 12 days", "value": 3}, {"measurement": "Number of tiller", "setting": "0.0001 mg/l, 3 °C, 12 days", "value": 2}, {"measurement": "Weight of root", "setting": "0.0001 mg/l, 3 °C, 12 days", "value": 2.9, "unit": "g"}, {"measurement": "Area of leaf", "setting": "0.0001 mg/l, 4 °C, 3 days", "value": 10.6, "unit": "cm^2"}, {"measurement": "Height", "setting": "0.0001 mg/l, 4 °C, 3 days", "value": 7.1, "unit": "cm"}, {"measurement": "Weight of root", "setting": "0.0001 mg/l, 4 °C, 3 days", "value": 2.5, "unit": "g"}, {"measurement": "Area of leaf", "setting": "0.0001 mg/l, 4 °C, 6 days", "value": 12.2, "unit": "cm^2"}, {"measurement": "Height", "setting": "0.0001 mg/l, 4 °C, 6 days", "value": 7.3, "unit": "cm"}, {"measurement": "Weight of root", "setting": "0.0001 mg/l, 4 °C, 6 days", "value": 2.6, "unit": "g"}, {"measurement": "Area of leaf", "setting": "0.0001 mg/l, 4 °C, 9 days", "value": 13, "unit": "cm^2"}, {"measurement": "Height", "setting": "0.0001 mg/l, 4 °C, 9 days", "value": 7.5, "unit": "cm"}, {"measurement": "Weight of root", "setting": "0.0001 mg/l, 4 °C, 9 days", "value": 2.9, "unit": "g"}, {"measurement": "Area of leaf", "setting": "0.0001 mg/l, 4 °C, 12 days", "value": 13.4, "unit": "cm^2"}, {"measurement": "Height", "setting": "0.0001 mg/l, 4 °C, 12 days", "value": 7.7, "unit": "cm"}, {"measurement": "Number of leaf", "setting": "0.0001 mg/l, 4 °C, 12 days", "value": 3}, {"measurement": "Number of tiller", "setting": "0.0001 mg/l, 4 °C, 12 days", "value": 2}, {"measurement": "Weight of root", "setting": "0.0001 mg/l, 4 °C, 12 days", "value": 2.9, "unit": "g"}, {"measurement": "Area of leaf", "setting": "0.0001 mg/l, 5 °C, 3 days", "value": 10.6, "unit": "cm^2"}, {"measurement": "Height", "setting": "0.0001 mg/l, 5 °C, 3 days", "value": 7.2, "unit": "cm"}, {"measurement": "Weight of root", "setting": "0.0001 mg/l, 5 °C, 3 days", "value": 2.6, "unit": "g"}, {"measurement": "Area of leaf", "setting": "0.0001 mg/l, 5 °C, 6 days", "value": 12.4, "unit": "cm^2"}, {"measurement": "Height", "setting": "0.0001 mg/l, 5 °C, 6 days", "value": 7.4, "unit": "cm"}, {"measurement": "Weight of root", "setting": "0.0001 mg/l, 5 °C, 6 days", "value": 2.8, "unit": "g"}, {"measurement": "Area of leaf", "setting": "0.0001 mg/l, 5 °C, 9 days", "value": 13.6, "unit": "cm^2"}, {"measurement": "Height", "setting": "0.0001 mg/l, 5 °C, 9 days", "value": 7.5, "unit": "cm"}, {"measurement": "Weight of root", "setting": "0.0001 mg/l, 5 °C, 9 days", "value": 2.9, "unit": "g"}, {"measurement": "Area of leaf", "setting": "0.0001 mg/l, 5 °C, 12 days", "value": 14, "unit": "cm^2"}, {"measurement": "Height", "setting": "0.0001 mg/l, 5 °C, 12 days", "value": 7.8, "unit": "cm"}, {"measurement": "Number of leaf", "setting": "0.0001 mg/l, 5 °C, 12 days", "value": 3}, {"measurement": "Number of tiller", "setting": "0.0001 mg/l, 5 °C, 12 days", "value": 2}, {"measurement": "Weight of root", "setting": "0.0001 mg/l, 5 °C, 12 days", "value": 3.0, "unit": "g"}, {"measurement": "Area of leaf", "setting": "0.001 mg/l, 1 °C, 3 days", "value": 10.1, "unit": "cm^2"}, {"measurement": "Height", "setting": "0.001 mg/l, 1 °C, 3 days", "value": 6.9, "unit": "cm"}, {"measurement": "Weight of root", "setting": "0.001 mg/l, 1 °C, 3 days", "value": 2.8, "unit": "g"}, {"measurement": "Area of leaf", "setting": "0.001 mg/l, 1 °C, 6 days", "value": 11.3, "unit": "cm^2"}, {"measurement": "Height", "setting": "0.001 mg/l, 1 °C, 6 days", "value": 7.1, "unit": "cm"}, {"measurement": "Weight of root", "setting": "0.001 mg/l, 1 °C, 6 days", "value": 3.1, "unit": "g"}, {"measurement": "Area of leaf", "setting": "0.001 mg/l, 1 °C, 9 days", "value": 12.6, "unit": "cm^2"}, {"measurement": "Height", "setting": "0.001 mg/l, 1 °C, 9 days", "value": 7.3, "unit": "cm"}, {"measurement": "Weight of root", "setting": "0.001 mg/l, 1 °C, 9 days", "value": 3.4, "unit": "g"}, {"measurement": "Area of leaf", "setting": "0.001 mg/l, 1 °C, 12 days", "value": 13, "unit": "cm^2"}, {"measurement": "Height", "setting": "0.001 mg/l, 1 °C, 12 days", "value": 7.3, "unit": "cm"}, {"measurement": "Number of leaf", "setting": "0.001 mg/l, 1 °C, 12 days", "value": 3}, {"measurement": "Number of tiller", "setting": "0.001 mg/l, 1 °C, 12 days", "value": 3}, {"measurement": "Weight of root", "setting": "0.001 mg/l, 1 °C, 12 days", "value": 3.9, "unit": "g"}, {"measurement": "Area of leaf", "setting": "0.001 mg/l, 2 °C, 3 days", "value": 10.3, "unit": "cm^2"}, {"measurement": "Height", "setting": "0.001 mg/l, 2 °C, 3 days", "value": 6.9, "unit": "cm"}, {"measurement": "Weight of root", "setting": "0.001 mg/l, 2 °C, 3 days", "value": 2.8, "unit": "g"}]}]}
